Results: patent EP0106060A2, “Imidazole derivatives and salts thereof, their synthesis, and pharmaceutical formulations” (THE WELLCOME FOUNDATION LIMITED, priority 1982, dated 1984)
In brackets after ≈: the same amount, converted by molar mass. Counter-ions that a name gives are not always drawn.

How the values were obtained:
[1] = tested on: Thromboxane A2 Synthetase; experiment: Duration of action of thromboxane A2 synthetase inhibitors in vivo (oral dosing, thromboxane A2 in serum of clotted blood by RIA); set-up: species or system N.Z. male rabbits; details: rabbit, period over which thromboxane A2 concentration is depressed relative to controls
Method: N.Z. male rabbits weighing 2.5 kg are anaesthetized with sodium pentobarbitone and chloralose and one carotoid artery is cannulated. Blood samples (lml) are taken for incubation; two as controls and one, adding 10 µg indomethacin, as a blank. After each sample is taken the cannula is flushed with saline. The active compound is then administered orally and further samples at half hour intervals for five to eight hours. The blood samples for the controls and the active compound are incubated in glass tubes for 45 minutes at 37°C to clot the blood. Indomethacin is added and the tubes centrifuged to separate the serum which is pipetted off for RIA analysis to determine the concentration of thromboxane A2. The period of time over which the inhibitor depressed the concentration of thromboxane A2 relative to the controls is then determined.

[2] = tested on: Thromboxane A2 Synthetase; experiment: Determination of thromboxane A2 synthetase inhibitory activity (lysed horse platelets, [1-14C]-arachidonic acid conversion, TLC/scintillation counting); assay type: biochemical; details: concentration of active compound required to reduce the enzyme activity by 50%; horse platelet lysate, 3 min at 37°C
Method: The active compound was dissolved in a suitable solvent at a concentration of 5 mg/ml, and 20 µl added to 0.8 ml of 100 mM Tris buffer (pH 7.5). The platelets from 5 ml of horse PRP were centrifuged and resuspended in 100µl of Tris buffer. After lysis by sonication or freeze thawing, the platelet suspension was added to the solution of active compound and equilibrated for 5 min at room temperature. Then 300 ng (50 nCi) of [1-^14C]-arachidonic acid, dissolved in 100 µl Tris buffer, was added and the mixture incubated for 3 min at 37°C. The reaction was stopped with 50 ul 2N HCl and the products extracted with 1.5 volumes ethyl acetate by whirling for 30 seconds. 1 ml saturated NaCl was added to the aqueous phase to prevent emulsion formation. […] The plate was developed in chloroform, methanol, acetic acid, water (90:8:1:0.8), dried and then visualised by autoradiography for 2-3 days. […] The concentration of active compound required to reduce the enzyme activity by 50% (ED50) was established.

SMILES	duration of action ([1]; dose of 2 mg/kg)	ED50 [2]	duration of action ([1]; dose of 160 mg/kg)
Cl.O=C(O)/C=C/c1ccc(Cn2ccnc2)c(Cl)c1 [Example 3, (E)-3-[3-Chloro-4-(imidazol-1-ylmethyl)phenyl] prop-2-enoic acid hydro chloride]	at least 7 hours	0.05 µg/mL	–
CCOC(=O)/C=C/c1ccc(Cn2ccnc2)c(Cl)c1 [Example 2, Ethyl (E)-3-[3-chloro-4-(imidazol-1-ylmethyl)phenyl]prop-2-enoate]	–	0.5 µg/mL (≈ 1.72 µM)	–
O=C(O)c1ccc(C=CCn2ccnc2)cc1Cl [Example 10, 1-[3-(4-Carboxy-3-chlorophenyl)prop-2-enyl]imidazole hydrochloride hemihydrate]	–	0.35 µg/mL	–
Cl.O.O=C(O)C=Cc1ccc(Cn2ccnc2)c(Br)c1 [Example 6, 3-[3-Bromo-4-(imidazol-1-ylmethyl)phenyl]prop-2-enoic acid hydrochloride hydrate]	–	0.015 µg/mL	–
Cl.O=C(O)c1ccc(Cn2ccnc2)c(Cl)c1 [Example 1, 1-(4-Carboxy-2-chlorobenzyl)imidazole hydrochloride]	–	6.6 µg/mL	at least 5 hours
O=C(O)CCc1ccc(Cn2ccnc2)c(Cl)c1 [Example 4, 3-[3-Chloro-4-(imidazol-1-ylmethyl)phenyl]proeanoic acid hydrochloride]	–	0.08 µg/mL	–
